ChEMBL document CHEMBL5512680, “Design, Synthesis, and Biological Evaluation of New 2,6,7-Substituted Purine Derivatives as Toll-like Receptor 7 Agonists for Intranasal Vaccine Adjuvants” (J Med Chem, 2024)
The source made the active and inactive calls. The calls are words filed in the database; no cut-off is given here.

Key:
[1] = biological target: T1, Toll-like receptor 7 (Homo sapiens, UniProt Q9NYK1); test: Agonist activity at human TLR7 expressed in HEK-blue TLR cells measured for 18 to 19 hrs by SEAP reporter gene based assay; format: cell-based
T1 sequence (Q9NYK1 whole entry): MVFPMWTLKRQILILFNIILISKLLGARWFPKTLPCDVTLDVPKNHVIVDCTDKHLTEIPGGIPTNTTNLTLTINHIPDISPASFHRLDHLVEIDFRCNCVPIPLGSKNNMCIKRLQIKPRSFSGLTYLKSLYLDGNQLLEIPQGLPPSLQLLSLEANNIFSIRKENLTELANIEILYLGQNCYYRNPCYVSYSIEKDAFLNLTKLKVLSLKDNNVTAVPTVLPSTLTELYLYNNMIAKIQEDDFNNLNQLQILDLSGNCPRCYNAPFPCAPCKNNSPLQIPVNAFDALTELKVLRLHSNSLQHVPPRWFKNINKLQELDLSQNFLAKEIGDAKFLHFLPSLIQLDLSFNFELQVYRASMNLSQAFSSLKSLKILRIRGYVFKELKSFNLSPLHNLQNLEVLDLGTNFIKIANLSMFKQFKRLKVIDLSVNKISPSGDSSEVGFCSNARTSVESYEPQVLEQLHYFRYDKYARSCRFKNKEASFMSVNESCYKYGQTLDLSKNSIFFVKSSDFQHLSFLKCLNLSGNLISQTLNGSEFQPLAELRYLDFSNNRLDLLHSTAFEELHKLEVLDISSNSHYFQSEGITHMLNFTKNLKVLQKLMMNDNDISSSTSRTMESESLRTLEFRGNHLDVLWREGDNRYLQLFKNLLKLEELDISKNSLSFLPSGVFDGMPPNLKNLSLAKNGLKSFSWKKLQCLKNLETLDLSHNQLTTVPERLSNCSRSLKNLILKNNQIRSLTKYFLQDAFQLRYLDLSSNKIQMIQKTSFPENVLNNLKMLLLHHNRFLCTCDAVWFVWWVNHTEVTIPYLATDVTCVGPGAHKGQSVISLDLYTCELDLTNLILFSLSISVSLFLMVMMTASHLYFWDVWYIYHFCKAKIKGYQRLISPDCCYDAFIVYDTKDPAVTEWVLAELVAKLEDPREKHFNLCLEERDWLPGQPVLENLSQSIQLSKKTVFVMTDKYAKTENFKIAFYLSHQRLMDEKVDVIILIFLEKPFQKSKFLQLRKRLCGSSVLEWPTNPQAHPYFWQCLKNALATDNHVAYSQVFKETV

[2] = biological target: T2, Toll-like receptor 7 (Mus musculus, UniProt P58681); test: Agonist activity at mouse TLR7 expressed in HEK293 cells co-expressing NF-kappaB/AP-1 inducible SEAP reporter gene measured for 24 hrs by colorimetric analysis; format: cell-based
T2 sequence (P58681 whole entry): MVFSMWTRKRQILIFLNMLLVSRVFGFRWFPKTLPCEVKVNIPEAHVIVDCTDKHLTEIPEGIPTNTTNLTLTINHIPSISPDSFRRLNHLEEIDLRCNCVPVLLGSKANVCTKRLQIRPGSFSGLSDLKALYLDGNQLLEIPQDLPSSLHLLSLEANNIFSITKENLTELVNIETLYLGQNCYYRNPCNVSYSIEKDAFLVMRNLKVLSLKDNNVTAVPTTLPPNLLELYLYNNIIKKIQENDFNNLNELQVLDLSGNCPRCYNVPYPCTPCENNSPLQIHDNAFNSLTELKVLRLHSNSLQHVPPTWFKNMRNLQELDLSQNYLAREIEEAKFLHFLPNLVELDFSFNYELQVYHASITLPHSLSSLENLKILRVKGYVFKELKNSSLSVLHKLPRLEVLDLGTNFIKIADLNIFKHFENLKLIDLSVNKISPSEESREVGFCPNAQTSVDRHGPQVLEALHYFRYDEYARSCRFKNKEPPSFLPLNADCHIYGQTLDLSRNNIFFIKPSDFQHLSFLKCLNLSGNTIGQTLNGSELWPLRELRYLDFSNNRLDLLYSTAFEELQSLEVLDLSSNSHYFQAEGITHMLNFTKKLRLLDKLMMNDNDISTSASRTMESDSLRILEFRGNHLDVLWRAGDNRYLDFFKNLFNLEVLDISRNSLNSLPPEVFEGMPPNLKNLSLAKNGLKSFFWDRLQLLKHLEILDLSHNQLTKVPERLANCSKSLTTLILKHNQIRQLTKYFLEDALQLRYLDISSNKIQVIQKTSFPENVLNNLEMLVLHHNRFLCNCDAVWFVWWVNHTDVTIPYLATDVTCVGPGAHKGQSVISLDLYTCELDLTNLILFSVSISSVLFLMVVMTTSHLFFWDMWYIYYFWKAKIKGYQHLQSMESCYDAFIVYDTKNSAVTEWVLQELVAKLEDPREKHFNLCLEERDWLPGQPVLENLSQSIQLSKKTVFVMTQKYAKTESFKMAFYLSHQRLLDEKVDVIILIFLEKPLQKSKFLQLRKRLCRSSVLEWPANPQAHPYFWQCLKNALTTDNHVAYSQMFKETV

[3] = In-vivo activation of mouse TLR7-mediated innate immune response in immunocompetent BALB/c mouse vaccinated with inactivated influenza A virus H1N1 A/Puerto Rico/8/1934 assessed as fold increase in IgG2a level in serum at 1 ug measured 3 weeks after immunization in presence of N6-butyl-7-(4-((diethylamino)methyl)-2-methoxybenzyl)-7H-purine-2,6-diamine by ELISA analysis; format: functional; conditions: dose 1 µg
[4] = biological target: T3, Toll-like receptor 7 (Mus musculus) (UniProt P58681); test: Agonist activity at mouse TLR7 expressed in HEK293 cells co-expressing NF-kappaB/AP-1 inducible SEAP reporter gene at 33 uM measured for 24 hrs by colorimetric analysis relative to control; format: cell-based
T3 sequence (whole entry): T2 sequence (P58681 whole entry)

[5] = species: Mus musculus; test: Immunostimulatory activity in BALB/c mouse vaccinated with inactivated PR8 (A/H1N1) assessed as decrease in body weight at 1 ug measured 3 weeks after immunization; format: functional, organism-based; conditions: dose 1.0 µg
[6] = system: Mus musculus; test: In-vivo protection against influenza A virus PR8 (A/H1N1) infection in immunocompetent BALB/c mouse model assessed as animal survival rate at 1 ug pretreated with compound for 3 weeks followed by viral infection and measured daily for 2 weeks; format: functional; conditions: dose 1 µg; time 5 weeks
[7] = species: Mus musculus; test: Immunostimulatory activity in BALB/c mouse vaccinated with inactivated PR8 (A/H1N1) assessed as animal survival at 0.1 ug measured 3 weeks after immunization; format: functional; conditions: dose 0.1 µg
[8] = species: Mus musculus; test: Immunostimulatory activity in BALB/c mouse vaccinated with inactivated PR8 (A/H1N1) assessed as animal survival at 0.01 ug measured 3 weeks after immunization; format: functional; conditions: dose 0.01 µg
[9] = species: Mus musculus; test: Immunostimulatory activity in BALB/c mouse vaccinated with inactivated PR8 (A/H1N1) assessed as animal survival at 1 ug measured 3 weeks after immunization; format: functional; conditions: dose 1 µg
[10] = system: Mus musculus; test: In-vivo protection against influenza A virus PR8 (A/H1N1) infection in immunocompetent BALB/c mouse model assessed as animal survival rate at 0.01 ug pretreated with compound for 3 weeks followed by viral infection and measured daily for 2 weeks; format: functional; conditions: dose 0.01 µg; time 5 weeks
[11] = biological target: T1, Toll-like receptor 7; test: Agonist activity at TLR7 (unknown origin)
[12] = biological target: T4, Toll-like receptor 8 (Homo sapiens, UniProt Q9NR97); test: Agonist activity at human TLR8 expressed in HEK-blue TLR cells measured for 18 to 19 hrs by SEAP reporter gene based assay; format: cell-based
T4 sequence (Q9NR97 whole entry): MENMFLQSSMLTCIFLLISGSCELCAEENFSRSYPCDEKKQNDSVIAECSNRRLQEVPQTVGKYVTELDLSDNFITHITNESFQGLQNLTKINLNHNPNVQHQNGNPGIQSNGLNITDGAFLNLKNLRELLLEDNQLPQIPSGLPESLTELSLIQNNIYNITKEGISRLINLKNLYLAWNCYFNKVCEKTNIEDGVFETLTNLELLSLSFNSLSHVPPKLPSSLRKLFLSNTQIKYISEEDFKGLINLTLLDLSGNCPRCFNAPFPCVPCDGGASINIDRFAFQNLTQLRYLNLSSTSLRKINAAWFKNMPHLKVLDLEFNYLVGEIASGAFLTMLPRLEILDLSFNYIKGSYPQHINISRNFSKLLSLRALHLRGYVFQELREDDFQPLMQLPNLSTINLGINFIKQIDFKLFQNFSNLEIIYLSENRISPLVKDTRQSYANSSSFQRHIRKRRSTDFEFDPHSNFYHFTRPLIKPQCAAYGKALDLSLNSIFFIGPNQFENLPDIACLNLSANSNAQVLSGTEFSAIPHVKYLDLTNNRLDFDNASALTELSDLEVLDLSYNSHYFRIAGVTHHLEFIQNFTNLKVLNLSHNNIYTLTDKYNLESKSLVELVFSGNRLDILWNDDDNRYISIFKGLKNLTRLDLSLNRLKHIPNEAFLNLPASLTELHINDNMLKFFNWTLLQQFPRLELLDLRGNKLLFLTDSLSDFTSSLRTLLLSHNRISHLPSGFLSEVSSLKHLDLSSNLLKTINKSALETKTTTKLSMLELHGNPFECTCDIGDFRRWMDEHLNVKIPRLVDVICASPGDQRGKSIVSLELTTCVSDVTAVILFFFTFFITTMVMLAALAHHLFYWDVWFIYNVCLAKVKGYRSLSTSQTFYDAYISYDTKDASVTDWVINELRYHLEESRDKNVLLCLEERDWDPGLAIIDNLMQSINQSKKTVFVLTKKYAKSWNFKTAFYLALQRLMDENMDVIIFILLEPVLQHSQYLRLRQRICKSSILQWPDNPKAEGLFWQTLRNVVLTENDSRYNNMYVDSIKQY

## COc1cc(CO)ccc1Cn1cnc2nc(N)nc(NCc3ccccc3)c21
[1]
  EC50: 2800 nM

## CCCCOc1nc(N)c2c(n1)N(Cc1cccc(CN3CCCC3)c1)CC(=O)N2 [VESATOLIMOD]
[2]
  EC50: 4570 nM
[3]
  fold change (FC): 5.2
[4]
  Emax: 0.657%
[5]
  Activity: Active

## CCCCNc1nc(N)nc2ncn(Cc3ccc(CN(CC)CC)cc3OC)c12
[2]
  EC50: 41.7 nM
[6]
  Survival: 100%
[7]
  Survival: 33.3%
[1]
  EC50: 17.5 nM
[8]
  Survival: 16.7%
[9]
  Survival: 66.7%
[10]
  Survival: 16.7%

## CC(C)Cn1cnc2c(N)nc3ccccc3c21 [IMIQUIMOD]
[11]
  EC50: 202 nM

## CCOCc1nc2c(N)nc3ccccc3c2n1CC(C)(C)C
[2]
  EC50: 299 nM

## CCCCNc1nc(N)nc2ncn(Cc3ccc(CN4CCNCC4)cc3OC)c12
[1]
  EC50: 169 nM

## CCCCNc1nc(N)nc2ncn(Cc3ccc(CN(C)C)cc3OC)c12
[1]
  EC50: 29.7 nM

## CCCCNc1nc(N)nc2ncn(Cc3ccc(CN4CCN(C)CC4)cc3OC)c12
[12]; hek-blue tlr
  EC50: < 10000 nM
[1]
  EC50: 24.7 nM

## CCCCNc1nc(N)nc2ncn(Cc3ccc(CN4CCCCC4)cc3OC)c12
[1]
  EC50: 20.5 nM

## CCCN(CCC)C(=O)C1=Cc2ccc(-c3ccc(C(=O)N4CCCC4)cc3)cc2N=C(N)C1 [MOTOLIMOD]
[12]
  EC50: 83.2 nM
